Test results reported in US20140120232A1, “ACID TASTE/ACID SMELL-REDUCING AGENT” (T. HASEGAWA CO., LTD., priority 2011, published 2014).

Experiment: Sensory evaluation of Vermont drink containing the agent
Conditions: ten panels
Outline: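 Tridecadienal or tridecatrienal isomers added at various concentrations to a Vermont-flavoured drink (apple-cider vinegar, honey, liquid sugar, citric acid, trisodium citrate, 100 mL total). Ten panelists assessed acid taste/acid smell and aldehyde-type off-odour, and the concentration giving the best acid taste/smell quality was selected.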

Structure (SMILES): CCCCC/C=C\C/C=C/C=C/C=O [(E,E,Z)-2,4,7-tridecatrienal]
- A: number of panels, acid taste/acid smell extreme and cause irritation (0.005 ppt): 10
- B: number of panels, acid taste/acid smell slightly strong and slightly cause irritation (0.005 ppt): 0
- C: number of panels, acid taste/acid smell slightly unpleasant (0.005 ppt): 0
- Flavor judgment: number of panels who judged acid taste/acid smell quality the highest (0.005 ppt): 0
- N: number of panels, irritation of acid reduced to give a mild acid taste (0.005 ppt): 0
- X: number of panels, acid taste reduced but piercing odor characteristic to aldehydes unpleasant (0.005 ppt): 0
- A: number of panels, acid taste/acid smell extreme and cause irritation (0.02 ppt): 10
- B: number of panels, acid taste/acid smell slightly strong and slightly cause irritation (0.02 ppt): 0
- C: number of panels, acid taste/acid smell slightly unpleasant (0.02 ppt): 0
- Flavor judgment: number of panels who judged acid taste/acid smell quality the highest (0.02 ppt): 0
- N: number of panels, irritation of acid reduced to give a mild acid taste (0.02 ppt): 0
- X: number of panels, acid taste reduced but piercing odor characteristic to aldehydes unpleasant (0.02 ppt): 0
- A: number of panels, acid taste/acid smell extreme and cause irritation (0.1 ppt): 10
- B: number of panels, acid taste/acid smell slightly strong and slightly cause irritation (0.1 ppt): 0
- C: number of panels, acid taste/acid smell slightly unpleasant (0.1 ppt): 0
- Flavor judgment: number of panels who judged acid taste/acid smell quality the highest (0.1 ppt): 0
- N: number of panels, irritation of acid reduced to give a mild acid taste (0.1 ppt): 0
- X: number of panels, acid taste reduced but piercing odor characteristic to aldehydes unpleasant (0.1 ppt): 0
- A: number of panels, acid taste/acid smell extreme and cause irritation (0.2 ppt): 8
- B: number of panels, acid taste/acid smell slightly strong and slightly cause irritation (0.2 ppt): 2
- C: number of panels, acid taste/acid smell slightly unpleasant (0.2 ppt): 0
- Flavor judgment: number of panels who judged acid taste/acid smell quality the highest (0.2 ppt): 0
- N: number of panels, irritation of acid reduced to give a mild acid taste (0.2 ppt): 0
- X: number of panels, acid taste reduced but piercing odor characteristic to aldehydes unpleasant (0.2 ppt): 0
- A: number of panels, acid taste/acid smell extreme and cause irritation (0.5 ppt): 7
- B: number of panels, acid taste/acid smell slightly strong and slightly cause irritation (0.5 ppt): 2
- C: number of panels, acid taste/acid smell slightly unpleasant (0.5 ppt): 1
- Flavor judgment: number of panels who judged acid taste/acid smell quality the highest (0.5 ppt): 0
- N: number of panels, irritation of acid reduced to give a mild acid taste (0.5 ppt): 0
- X: number of panels, acid taste reduced but piercing odor characteristic to aldehydes unpleasant (0.5 ppt): 0
- A: number of panels, acid taste/acid smell extreme and cause irritation (1 ppb): 0
- B: number of panels, acid taste/acid smell slightly strong and slightly cause irritation (1 ppb): 0
- C: number of panels, acid taste/acid smell slightly unpleasant (1 ppb): 3
- Flavor judgment: number of panels who judged acid taste/acid smell quality the highest (1 ppb): 0
- N: number of panels, irritation of acid reduced to give a mild acid taste (1 ppb): 4
- X: number of panels, acid taste reduced but piercing odor characteristic to aldehydes unpleasant (1 ppb): 3
- A: number of panels, acid taste/acid smell extreme and cause irritation (1 ppt): 0
- B: number of panels, acid taste/acid smell slightly strong and slightly cause irritation (1 ppt): 5
- C: number of panels, acid taste/acid smell slightly unpleasant (1 ppt): 4
- Flavor judgment: number of panels who judged acid taste/acid smell quality the highest (1 ppt): 0
- N: number of panels, irritation of acid reduced to give a mild acid taste (1 ppt): 1
- X: number of panels, acid taste reduced but piercing odor characteristic to aldehydes unpleasant (1 ppt): 0
- A: number of panels, acid taste/acid smell extreme and cause irritation (5 ppt): 0
- B: number of panels, acid taste/acid smell slightly strong and slightly cause irritation (5 ppt): 2
- C: number of panels, acid taste/acid smell slightly unpleasant (5 ppt): 3
- Flavor judgment: number of panels who judged acid taste/acid smell quality the highest (5 ppt): 3
- N: number of panels, irritation of acid reduced to give a mild acid taste (5 ppt): 5
- X: number of panels, acid taste reduced but piercing odor characteristic to aldehydes unpleasant (5 ppt): 0
- A: number of panels, acid taste/acid smell extreme and cause irritation (10 ppb): 0
- B: number of panels, acid taste/acid smell slightly strong and slightly cause irritation (10 ppb): 0
- C: number of panels, acid taste/acid smell slightly unpleasant (10 ppb): 2
- Flavor judgment: number of panels who judged acid taste/acid smell quality the highest (10 ppb): 0
- N: number of panels, irritation of acid reduced to give a mild acid taste (10 ppb): 2
- X: number of panels, acid taste reduced but piercing odor characteristic to aldehydes unpleasant (10 ppb): 6
- A: number of panels, acid taste/acid smell extreme and cause irritation (20 ppt): 0
- B: number of panels, acid taste/acid smell slightly strong and slightly cause irritation (20 ppt): 0
- C: number of panels, acid taste/acid smell slightly unpleasant (20 ppt): 4
- Flavor judgment: number of panels who judged acid taste/acid smell quality the highest (20 ppt): 4
- N: number of panels, irritation of acid reduced to give a mild acid taste (20 ppt): 6
- X: number of panels, acid taste reduced but piercing odor characteristic to aldehydes unpleasant (20 ppt): 0
- A: number of panels, acid taste/acid smell extreme and cause irritation (50 ppb): 0
- B: number of panels, acid taste/acid smell slightly strong and slightly cause irritation (50 ppb): 0
- C: number of panels, acid taste/acid smell slightly unpleasant (50 ppb): 0
- Flavor judgment: number of panels who judged acid taste/acid smell quality the highest (50 ppb): 0
- N: number of panels, irritation of acid reduced to give a mild acid taste (50 ppb): 2
- X: number of panels, acid taste reduced but piercing odor characteristic to aldehydes unpleasant (50 ppb): 8
- A: number of panels, acid taste/acid smell extreme and cause irritation (100 ppt): 0
- B: number of panels, acid taste/acid smell slightly strong and slightly cause irritation (100 ppt): 0
- C: number of panels, acid taste/acid smell slightly unpleasant (100 ppt): 3
- Flavor judgment: number of panels who judged acid taste/acid smell quality the highest (100 ppt): 3
- N: number of panels, irritation of acid reduced to give a mild acid taste (100 ppt): 7
- X: number of panels, acid taste reduced but piercing odor characteristic to aldehydes unpleasant (100 ppt): 0
- A: number of panels, acid taste/acid smell extreme and cause irritation (500 ppt): 0
- B: number of panels, acid taste/acid smell slightly strong and slightly cause irritation (500 ppt): 0
- C: number of panels, acid taste/acid smell slightly unpleasant (500 ppt): 4
- Flavor judgment: number of panels who judged acid taste/acid smell quality the highest (500 ppt): 0
- N: number of panels, irritation of acid reduced to give a mild acid taste (500 ppt): 4
- X: number of panels, acid taste reduced but piercing odor characteristic to aldehydes unpleasant (500 ppt): 2
